# Reference: article PMC10663510 (Scientific Reports, 2023)
# T1: MSMEG-3765 (TetR-like repressor) (Mycolicibacterium (Mycobacterium) smegmatis mc2 155?), ORF:4079dac7
# T1 sequence: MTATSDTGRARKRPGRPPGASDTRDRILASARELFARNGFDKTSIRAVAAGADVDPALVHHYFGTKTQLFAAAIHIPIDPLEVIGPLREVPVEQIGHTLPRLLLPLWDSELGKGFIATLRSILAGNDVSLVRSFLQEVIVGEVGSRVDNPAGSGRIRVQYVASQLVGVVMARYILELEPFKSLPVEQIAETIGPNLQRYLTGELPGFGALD
# Tests used:
# [1] = biological target: T2, MSMEG-3765 (TetR-like repressor) (Mycolicibacterium smegmatis, UniProt A0QYS0); assay: EMSA, release of […] bp operator DNA; format: binding; settings: 0.2 pmol DNA, 4 pmol protein, 400 or 4000 pmol drug in 20 ul; 20 mM HEPES pH 8.0, 75 mM NaCl, 10 mM MgCl2, 30 °C
# T2 construct: gene MSMEG_3765; homodimer; 211 residues per chain in model
# [2] = tested on: T1, MSMEG-3765 (TetR-like repressor) (Mycolicibacterium (Mycobacterium) smegmatis mc2 155?), ORF:4079dac7; assay: EMSA; settings: 20 mM HEPES pH 8.0, 75 mM NaCl, 10 mM MgCl2, 5% glycerol; 20 ul, 30 C 10 min; native 8% PAGE at 4 C
# [3] = biological target: the molecule itself; assay: circular dichroism (spectrum and thermal unfolding) compared with data back-calculated from monomer and dimer models; MSMEG-3765 in 20 mM Tris HCl, 500 mM NaCl, pH 8; CD spectra 200-260 nm at 5-85 °C; melting temperature and spectrum compared with predictions (SCooP, PDBMD2CD) from predicted monomeric and dimeric structures
molecule,measurement,setting,value
O=C(O)c1cn(C2CC2)c2cc(N3CCNCC3)c(F)cc2c1=O [ciprofloxacin],"EMSA, release of 133 bp operator DNA",[1],rifampicin or ciprofloxacin are able to directly interfear with the binding of the MSMEG-3765 TetR
CO[C@H]1/C=C/O[C@@]2(C)Oc3c(C)c(O)c4c(O)c(c(/C=N/N5CCN(C)CC5)c(O)c4c3C2=O)NC(=O)/C(C)=C\C=C\[C@H](C)[C@H](O)[C@@H](C)[C@@H](O)[C@@H](C)[C@H](OC(C)=O)[C@@H]1C [rifampicin],"EMSA, release of 133 bp operator DNA",[1],rifampicin or ciprofloxacin are able to directly interfear with the binding of the MSMEG-3765 TetR
CTGCTGGAGTCCGCCGCCTGAGCCAGGCGTCGCCGACGCCGAAATGTGTCGACGCATCGTCTTCCCACCGGACGACGGCAGGCCTAGAATTCATTGCATGATGACTTCATCGCGCGATGAATTGTCAGCGACGGGGCCCG (double strand) [133 bp MSMEG_3762 upstream operator fragment],binding,[2],binds
"TetR-like MSMEG-3765 repressor (natural protein, also called MSMEG-3765 TetR recombinant protein; TetR-like MSMEG-3765 protein) MTATSDTGRARKRPGRPPGASDTRDRILASARELFARNGFDKTSIRAVAAGADVDPALVHHYFGTKTQLFAAAIHIPIDPLEVIGPLREVPVEQIGHTLPRLLLPLWDSELGKGFIATLRSILAGNDVSLVRSFLQEVIVGEVGSRVDNPAGSGRIRVQYVASQLVGVVMARYILELEPFKSLPVEQIAETIGPNLQRYLTGELPGFGALD",binding result,[3],binds
